Reference: publication PMC7340446, “Optimization of PTH/PTHrP Hybrid Peptides to Derive a Long‐Acting PTH Analog (LA‐PTH)” (JBMR Plus, 2020)
Each block holds one compound with its values, some of them ahead of it. Where no end group is shown, it is not given here.

Tests used:
[1] = test system: amino‐terminal ECD portion of the PTH receptor; settings: cited from earlier work
Text: In this study, we systematically explored a series of hybrid molecules composed of PTH and PTHrP.

[2] = Pharmacokinetics in normal rats, i.v., plasma peptide by ELISA; format: in vivo, rat; settings: i.v. 10 nmol/kg, plasma with protease inhibitors, n = 4 (M‐PTH/PTHrP) or 3 (PTH(1–34))
Method: For pharmacokinetic studies, plasma samples were prepared in the presence of protease inhibitors (aprotinin, leupeptin, EDTA). Plasma levels of PTH(1–34) were assessed by ELISA assay (Human PTH(1–34) Specific ELISA Kit; Immutopics Inc, San Clemente, CA, USA), and plasma levels of M‐PTH/PTHrP were assessed by ELISA assay (PTH‐RP 1–34 Human Enzyme Immunoassay Kit; Peninsula Laboratories International, San Carlos CA, USA) using M‐PTH/PTHrP peptides as standard solutions.
Figure 3 Pharmacodynamic and pharmacokinetic profiles of M‐PTH/PTHrP and PTH(1–34) in rats. (A) Effects of M‐PTH/PTHrP and PTH(1–34) on blood ionized Ca in TPTX rats by i.v. injection. M‐PTH/PTHrP and PTH(1–34) were injected intravenously in TPTX rats at the indicated doses, and blood samples were collected from the tail vein measured for ionized Ca; data are means ± SE; n = 5 or 3 (PTH(1–34)). *p < 0.05, **p < 0.01, ***p < 0.005 M‐PTH/PTHrP or PTH(1–34) versus TPTX‐vehicle. […] M‐PTH/PTHrP and PTH(1–34) each at a dose of 10 nmol/kg were i.v. administered, and blood samples were collected from the jugular vein in the presence of proteinase inhibitors (Aprotinin, Leupeptin, and EDTA) and the plasma samples were assessed for peptide concentration using a hPTHrP(1–34)‐targeted EIA for M‐PTH/PTHrP and an hPTH(1–34)‐targeted ELISA for PTH(1–34). […]

[3] = Peptide solubility in aqueous buffers of neutral pH; format: physicochemical; settings: lyophilized peptide reconstituted at 1.5 mg/cc in PBS pH 7.4 or 10‐mM acetic acid, 24 hours room temperature, centrifuged, supernatant by BCA protein assay; versus M‐PTH(1‐14)/PTHrP(15‐36)
[4] = test system: TPTX rats; settings: orally available agonist; cited from earlier work
Text: The low solubility observed for M‐PTH/PTHrP and related analogs containing the C‐terminal PTHrP(15–36) sequence when prepared at high concentrations in aqueous neutral buffer led us to explore amino acid substitutions that would improve solubility yet preserve activity on the PTHR1. […] The resulting analog, [Ala^1,3,12,18,22,Gln^10,Arg^11,Trp^14,Lys^26]‐PTH(1‐14)/PTHrP(15–36), ...

Compound: PTHrP(15–36): C‐terminal PTHrP fragment binding the receptor ECD (IQDLRRRFFLHHLIAEIHTAEI; Parathyroid hormone-related protein; UniProt P12272 51-72, looked up, fragment)
Affinity for the ECD relative to the PTH(15–34) fragment [1]: approximately twofold higher affinity

Time by which plasma concentration declined to the lowest detection level [2]: ≤ 60 min
Compound: CC[C@H](C)[C@H](NC(=O)[C@H](CCC(=O)O)NC(=O)[C@H](CO)NC(=O)[C@@H](NC(=O)[C@@H](N)CO)C(C)C)C(=O)N[C@@H](CCC(N)=O)C(=O)N[C@@H](CC(C)C)C(=O)N[C@@H](CCSC)C(=O)N[C@@H](Cc1cnc[nH]1)C(=O)N[C@@H](CC(N)=O)C(=O)N[C@@H](CC(C)C)C(=O)NCC(=O)N[C@@H](CCCCN)C(=O)N[C@@H](Cc1cnc[nH]1)C(=O)N[C@@H](CC(C)C)C(=O)N[C@@H](CC(N)=O)C(=O)N[C@@H](CO)C(=O)N[C@@H](CCSC)C(=O)N[C@@H](CCC(=O)O)C(=O)N[C@@H](CCCN=C(N)N)C(=O)N[C@H](C(=O)N[C@@H](CCC(=O)O)C(=O)N[C@@H](Cc1c[nH]c2ccccc12)C(=O)N[C@@H](CC(C)C)C(=O)N[C@@H](CCCN=C(N)N)C(=O)N[C@@H](CCCCN)C(=O)N[C@@H](CCCCN)C(=O)N[C@@H](CC(C)C)C(=O)N[C@@H](CCC(N)=O)C(=O)N[C@@H](CC(=O)O)C(=O)N[C@H](C(=O)N[C@@H](Cc1cnc[nH]1)C(=O)N[C@@H](CC(N)=O)C(=O)N[C@@H](Cc1ccccc1)C(=O)O)C(C)C)C(C)C [PTH(1‐34), reference compound]

Peptide solubility in PBS relative to 10 mM acetic acid [3]: improved peptide solubility
Compound: AVAEIQLMHQRAKWIQDARRRAFLHKLIAEIHTAEI [LA‐PTH, [Ala^1,3,12,Gln^10,Arg^11,Trp^14]PTH(1‐14)/[Ala^18,22,Lys^26]PTHrP(15‐36)COOH]

Compound: Cc1cc(N2C(=O)NC(=O)C2(C)C)cc(C)c1CCS(=O)(=O)N1CCC2(CC1)N=C(c1ccc(OC(F)(F)F)cc1)NC2=O [PCO371]
Effect on sCa and sPi levels [4]: restore sCa and lower sPi levels
